Laboratory results: patent US20260022143A1, “Cyclic Peptide Inhibitors of IL-23” (JANSSEN PHARMACEUTICA NV, priority 2022, published 2026)
pIC50: −log10 of the molar value. Where a name gives a salt, the structure may show the parent alone. Read-outs that look alike come from different tables or passages of the source. Starred links: 1 amine or outer side, 2 acyl side, 3 side chain; linkers in the order of their positions; H or OH if unused. Positions of bridges follow the written chain, without caps; N, C: chain ends. Non-standard residues stand in square brackets, D forms with d. Residues, ends and D or L forms follow the SMILES beside them. *: point of attachment. Me3N+CH2CH2(OCH2CH2)4CO = C[N+](C)(C)CCOCCOCCOCCOCCC(=O)*; Me3N+(CH2)2O(CH2)2O(CH2)2CO = C[N+](C)(C)CCOCCOCCC(=O)*; Trp(7-Me) = Cc1cccc2c(C[C@H](N)C(=O)O)c[nH]c12; dLys(Me3) = C[N+](C)(C)CCCC[C@@H](N)C(=O)O; X1 = CN(CC[C@H](N[*:1])C(=O)[*:2])[*:3]; 2Nal = N[C@@H](Cc1ccc2ccccc2c1)C(=O)O; AEF = NCCOc1ccc(C[C@H](N)C(=O)O)cc1; 3Pal = N[C@@H](Cc1cccnc1)C(=O)O; Lys(Me) = CNCCCC[C@H](N)C(=O)O; Pen = CC(C)(S)[C@H](N)C(=O)O; Thp = NC1(C(=O)O)CCOCC1; X3 = C[N+](C)(C)CCCCC*; Me2NCH2CH2 = CN(C)CC*; Tfa = O=C(C(F)(F)F)*; Sar = CNCC(=O)O

Assays:
IL-23R = biological target: T1, IL-23R (Homo sapiens, UniProt Q5VWK5); assay: IL23R Reporter Assay; assay type: cell-based; conditions: HEK293 cells containing IL-23R, IL-12RP1 and STAT-inducible firefly luciferase reporter; 10 ng/mL IL-23 (EC90); 5 h at 37° C.; read-out: IL23R Reporter Assay
T1 construct: host or cells: HEK293
T1 sequence (Q5VWK5 24-629): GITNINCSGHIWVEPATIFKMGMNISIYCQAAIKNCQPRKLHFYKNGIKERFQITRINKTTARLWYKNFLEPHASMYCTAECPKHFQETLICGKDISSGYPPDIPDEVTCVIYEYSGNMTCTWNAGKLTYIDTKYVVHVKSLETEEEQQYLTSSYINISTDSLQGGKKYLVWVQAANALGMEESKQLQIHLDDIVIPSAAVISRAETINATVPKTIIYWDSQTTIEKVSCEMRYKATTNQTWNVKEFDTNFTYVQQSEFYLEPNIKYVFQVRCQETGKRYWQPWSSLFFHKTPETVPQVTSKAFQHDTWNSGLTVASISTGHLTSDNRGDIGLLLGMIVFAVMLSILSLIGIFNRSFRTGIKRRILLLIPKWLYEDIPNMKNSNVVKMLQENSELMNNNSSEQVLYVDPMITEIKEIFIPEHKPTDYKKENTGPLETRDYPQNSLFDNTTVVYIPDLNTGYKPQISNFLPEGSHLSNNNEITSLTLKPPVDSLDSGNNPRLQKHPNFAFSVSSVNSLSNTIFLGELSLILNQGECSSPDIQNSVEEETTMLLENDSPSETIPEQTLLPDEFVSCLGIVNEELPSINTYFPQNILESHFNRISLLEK

[1] = biological target: T2, interleukin-23 (IL-23) receptor (Homo sapiens, UniProt Q5VWK5); assay: PBMC pSTAT3 assay; assay type: cell-based
T2 construct: Cryopreserved peripheral blood mononuclear cells (PBMCs) from healthy donors were thawed; endogenous in cells; host or cells: cryopreserved PBMCs from healthy donors, expanded 4 days on anti-CD3 with IL-1
T2 sequence (Q5VWK5 24-629): T1 sequence (Q5VWK5 24-629)
Experimental: Cryopreserved peripheral blood mononuclear cells (PBMCs) from healthy donors were thawed and washed twice in ImmunoCult-XF T cell expansion medium (XF-TCEM) supplemented with CTL anti-aggregate wash. The cells were counted, resuspended at 2×10^5 cells per mL XF-TCEM supplemented with penicillin/streptomycin and 100 ng/mL IL-1 (BioLegend, 579404), and cultured in tissue culture flasks coated with anti-CD3 (eBioscience, 16-0037-85 or BD Pharmingen, 555329) at 37° C. in 5% CO2. On day 4 of culture, PBMCs were collected, washed twice in RPMI-1640 supplemented with 0.1% BSA (RPMI-BSA), and incubated in RPMI-BSA in upright tissue culture flasks for 4 hours at 37° C. in 5% CO2. Following this ‘starvation,’ a total of 6×10^4 cells in […] RPMI-BSA was transferred into each well of a 384-well plate pre-spotted with peptide or DMSO. The cells were incubated for 30 minutes prior to the addition of IL-23 at a final concentration of 5 ng/mL. The cells were stimulated with cytokine for 30 minutes at 37° C. in 5% CO2, transferred onto ice for 10 minutes, and lysed. Cell lysates were stored at −80° C. until phosphorylated STAT3 was measured using the phospho-STAT panel kit (Meso Scale Discovery, K15202D).

[2] = Exposed Polar Surface Area (EPSA); assay type: physicochemical; conditions: SFC on Chirex 3014 column, sample 1 mM DMSO stock
Outline: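 SFC retention on a Chirex 3014 (S)-valine/(R)-1-(α-naphthyl)ethylamine column, 35 °C, CO2 with MeOH (20 mM ammonium formate) gradient 5–60% at 20%/min, 14 MPa outlet. Retention times converted to EPSA (Å^2) via linear calibration with 8 standards; samples from 1 mM DMSO stock, run in duplicate.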

Row | Compound | pIC50 (IL-23R) | pIC50 [1] | EPSA ([2]; read-out: EPSA) [A^2] | EPSA [2] [Å^2]
1 | Cc1cccc2c(C[C@@H]3NC(=O)[C@H]([C@@H](C)O)NC(=O)[C@H](CC(=O)N(C)C)NC(=O)[C@@H](NC(=O)CCOCCOCCOCCOCC[N+](C)(C)C)C(C)(C)SSC(C)(C)[C@@H](C(=O)N[C@@H](Cc4ccc(OCCN)cc4)C(=O)N[C@@H](Cc4ccc5ccccc5c4)C(=O)NC4(C(=O)N[C@@H](CCC(=O)O)C(=O)N[C@@H](CC(N)=O)C(=O)N[C@@H](Cc5cccnc5)C(=O)N(C)CC(=O)N(C)C)CCOCC4)NC(=O)[C@H](CCN(C)C(=O)CCOCCOCCOCCOCC[N+](C)(C)C)NC3=O)c[nH]c12 [compound 145, cPEG5aCO-Pen(3)-N(N(Me)2)-T-7MeW-Dab(NMecPEG5a)-Pen(3)-AEF-2Nal-THP-E-N-3Pya-Sar-CON(Me)2] ({Me3N+CH2CH2(OCH2CH2)4CO}-[Pen]D(NMe2)T[Trp(7-Me)][X1](Me3N+CH2CH2(OCH2CH2)4CO)[Pen][AEF][2Nal][Thp]EN[3Pal][Sar]-NMe2; disulfide 1-6) | 8.24 | 10.66 | 158 | 
2 | CC(=O)N(C)CCCC[C@@H]1NC(=O)[C@H](Cc2c[nH]c3c(C)cccc23)NC(=O)[C@H]([C@@H](C)O)NC(=O)[C@H](CC(=O)N(C)C)NC(=O)[C@@H](NC(=O)C(F)(F)F)C(C)(C)SSC(C)(C)[C@@H](C(=O)N[C@@H](Cc2ccc(OCCN)cc2)C(=O)N[C@@H](Cc2ccc3ccccc3c2)C(=O)NC2(C(=O)N[C@@H](CCCCN(C)C(C)=O)C(=O)N[C@@H](CC(N)=O)C(=O)N[C@@H](Cc3cccnc3)C(=O)N(C)CC(=O)N(C)C)CCOCC2)NC1=O [compound 68, CF3CO-Pen(3)-N(N(Me)2)-T-7MeW-K(NMeAc)-Pen(3)-AEF-2Nal-THP-K(NMeAc)-N-3Pya-Sar-CON(Me)2] (Tfa-[Pen]D(NMe2)T[Trp(7-Me)][Lys(Me)](Ac)[Pen][AEF][2Nal][Thp][Lys(Me)](Ac)N[3Pal][Sar]-NMe2; disulfide 1-6) |  | 10.92 | 148 | 
3 | CC(=O)NCCCC[C@@H]1NC(=O)[C@H](Cc2c[nH]c3c(C)cccc23)NC(=O)[C@H]([C@@H](C)O)NC(=O)[C@H](CC(N)=O)NC(=O)[C@@H](NC(C)=O)C(C)(C)SSC(C)(C)[C@@H](C(=O)N[C@@H](Cc2ccc(OCCCCC[N+](C)(C)C)cc2)C(=O)N[C@@H](Cc2ccc3ccccc3c2)C(=O)NC2(C(=O)N[C@@H](CCCCNC(C)=O)C(=O)N[C@@H](CC(N)=O)C(=O)N[C@@H](Cc3cccnc3)C(=O)N(C)CC(N)=O)CCOCC2)NC1=O [compound 281, MeCO-Pen(3)-N-T-7MeW-K(Ac)-Pen(3)-TMAPF-2Nal-THP-K(Ac)-N-3Pya-Sar-CONH2] (Ac-[Pen]NT[Trp(7-Me)]K(Ac)[Pen]Y(X3)[2Nal][Thp]K(Ac)N[3Pal][Sar]-NH2; disulfide 1-6 (inferred)) | 8.80 | 11.12 | 158 | 
4 | Cc1cccc2c(C[C@@H]3NC(=O)[C@H]([C@@H](C)O)NC(=O)[C@H](CC(N)=O)NC(=O)[C@@H](NC(=O)C(F)(F)F)C(C)(C)SSC(C)(C)[C@@H](C(=O)N[C@@H](Cc4ccc(OCCN)cc4)C(=O)N[C@@H](Cc4ccc5ccccc5c4)C(=O)NC4(C(=O)N[C@@H](CCC(=O)N(C)C)C(=O)N[C@@H](CC(N)=O)C(=O)N[C@@H](Cc5cccnc5)C(=O)N(C)CC(N)=O)CCOCC4)NC(=O)[C@H](CCC(=O)N(C)C)NC3=O)c[nH]c12 [compound 62] (Tfa-[Pen]NT[Trp(7-Me)]E(NMe2)[Pen][AEF][2Nal][Thp]E(NMe2)N[3Pal][Sar]-NH2; disulfide 1-6 (inferred)) | 8.49 | 11.09 | 160 | 
5 | CC(=O)N(C)CCCC[C@@H]1NC(=O)[C@H](Cc2c[nH]c3c(C)cccc23)NC(=O)[C@H]([C@@H](C)O)NC(=O)[C@H](CC(=O)N(C)C)NC(=O)[C@@H](NC(=O)CCOCCOCC[N+](C)(C)C)C(C)(C)SSC(C)(C)[C@@H](C(=O)N[C@@H](Cc2ccc(OCCCCC[N+](C)(C)C)cc2)C(=O)N[C@@H](Cc2ccc3ccccc3c2)C(=O)NC2(C(=O)N[C@@H](CCCCN(C)C(C)=O)C(=O)N[C@@H](CC(N)=O)C(=O)N[C@@H](Cc3cccnc3)C(=O)N(C)CC(=O)N(C)C)CCOCC2)NC1=O [compound 164, cPEG3aCO-Pen(3)-N(N(Me)2)-T-7MeW-K(NMeAc)-Pen(3)-TMAPF-2Nal-THP-K(NMeAc)-N-3Pya-Sar-CON(Me)2] ({Me3N+(CH2)2O(CH2)2O(CH2)2CO}-[Pen]D(NMe2)T[Trp(7-Me)][Lys(Me)](Ac)[Pen]Y(X3)[2Nal][Thp][Lys(Me)](Ac)N[3Pal][Sar]-NMe2; disulfide 1-6) |  | 10.89 |  | 144.54
6 | CC(=O)N[C@H](CCCC[N+](C)(C)C)C(=O)N[C@@H]1C(=O)N[C@@H](CC(=O)N(C)C)C(=O)N[C@@H]([C@@H](C)O)C(=O)N[C@@H](Cc2c[nH]c3c(C)cccc23)C(=O)N[C@@H](CCCCN(C)C(C)=O)C(=O)N[C@H](C(=O)N[C@@H](Cc2ccc(OCCN(C)C)cc2)C(=O)N[C@@H](Cc2ccc3ccccc3c2)C(=O)NC2(C(=O)N[C@@H](CCC(=O)O)C(=O)N[C@@H](CC(N)=O)C(=O)N[C@@H](Cc3cccnc3)C(=O)N(C)CC(=O)N(C)C)CCOCC2)C(C)(C)SSC1(C)C [compound 105, MeCO-k(Me)3-Pen(3)-N(N(Me)2)-T-7MeW-K(NMeAc)-Pen(3)-AEF(N(Me)2)-2Nal-THP-E-N-3Pya-Sar-CON(Me)2] (Ac-[dLys(Me3)][Pen]D(NMe2)T[Trp(7-Me)][Lys(Me)](Ac)[Pen]Y(Me2NCH2CH2)[2Nal][Thp]EN[3Pal][Sar]-NMe2; disulfide 2-7) |  | 11.12 | 155 | 
7 | CC(=O)N(C)CCCC[C@@H]1NC(=O)[C@H](Cc2c[nH]c3c(C)cccc23)NC(=O)[C@H]([C@@H](C)O)NC(=O)[C@H](CC(=O)N(C)C)NC(=O)[C@@H](NC(=O)C(F)(F)F)C(C)(C)SSC(C)(C)[C@@H](C(=O)N[C@@H](Cc2ccc(OCCN(C)C)cc2)C(=O)N[C@@H](Cc2ccc3ccccc3c2)C(=O)NC2(C(=O)N[C@@H](CCC(=O)O)C(=O)N[C@@H](CC(N)=O)C(=O)N[C@@H](Cc3cccnc3)C(=O)N(C)CC(=O)N(C)C)CCOCC2)NC1=O [compound 104, CF3CO-Pen(3)-N(N(Me)2)-T-7MeW-K(NMeAc)-Pen(3)-AEF(N(Me)2)-2Nal-THP-E-N-3Pya-Sar-CON(Me)2] (Tfa-[Pen]D(NMe2)T[Trp(7-Me)][Lys(Me)](Ac)[Pen]Y(Me2NCH2CH2)[2Nal][Thp]EN[3Pal][Sar]-NMe2; disulfide 1-6) |  | 11.49 | 150 | 
8 | CC(=O)NCCCC[C@@H]1NC(=O)[C@H](Cc2c[nH]c3c(C)cccc23)NC(=O)[C@H]([C@@H](C)O)NC(=O)[C@H](CC(N)=O)NC(=O)[C@@H](NC(=O)CCOCCOCC[N+](C)(C)C)C(C)(C)SSC(C)(C)[C@@H](C(=O)N[C@@H](Cc2ccc(OCCN)cc2)C(=O)N[C@@H](Cc2ccc3ccccc3c2)C(=O)NC2(C(=O)N[C@@H](CCC(=O)O)C(=O)N[C@@H](CC(N)=O)C(=O)N[C@@H](Cc3cccnc3)C(=O)N(C)CC(N)=O)CCOCC2)NC1=O [compound 82, cPEG3aCO-Pen(3)-N-T-7MeW-K(Ac)-Pen(3)-AEF-2Nal-THP-E-N-3Pya-Sar-CONH2] ({Me3N+(CH2)2O(CH2)2O(CH2)2CO}-[Pen]NT[Trp(7-Me)]K(Ac)[Pen][AEF][2Nal][Thp]EN[3Pal][Sar]-NH2; disulfide 1-6) |  | 11.24 | 171 | 
